Data: ChEMBL document CHEMBL3407385, “Promiscuous 2-aminothiazoles (PrATs): a frequent hitting scaffold” (J Med Chem, 2015)
Calls of active or inactive are those of the source. The calls are words filed in the database; no cut-off is given here.

What was measured:
[1] = Binding affinity to oxidoreductase 1 (unknown origin) at 1 mM by HSQC-NMR analysis
[2] = Binding affinity to oxidoreductase 1 (unknown origin) by STD-NMR analysis
[3] = target: T1, SPRY domain-containing SOCS box protein 2 (Homo sapiens) (UniProt Q99619); assay: Binding affinity to SPSB2 (unknown origin) at 3mM by 19F NMR method
T1 sequence (whole entry): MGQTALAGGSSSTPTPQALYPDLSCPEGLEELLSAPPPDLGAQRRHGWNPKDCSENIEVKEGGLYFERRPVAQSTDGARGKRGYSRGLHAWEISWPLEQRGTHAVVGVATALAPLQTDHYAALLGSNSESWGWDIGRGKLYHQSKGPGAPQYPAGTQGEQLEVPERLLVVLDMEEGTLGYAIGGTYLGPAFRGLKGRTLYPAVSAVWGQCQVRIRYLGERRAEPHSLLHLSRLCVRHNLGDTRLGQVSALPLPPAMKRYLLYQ

[4] = Binding affinity to oxidoreductase 1 (unknown origin) at 1.5 mM by HSQC-NMR analysis

Compound | Activity [1] | Activity [2] | Activity [3] | Activity [4]
COc1ccc(-c2nc(N)sc2C)cc1 | Active |  |  | 
Nc1nc(-c2ccccc2)cs1 | Active | Active | Active | 
Nc1nc2cc3c(cc2s1)OCCO3 |  |  |  | Active
Cc1sc(N)nc1-c1ccccc1 | Active |  |  | 
